As a reminder, the ΔTm is the shift of the melting midpoint relative to a reference.

Here are results for nine compounds from paper PMC11012289, “The Discovery of New Inhibitors of Insulin-Regulated Aminopeptidase by a High-Throughput Screening of 400,000 Drug-like Compounds” (International Journal of Molecular Sciences, 2024).

Bounds are passed on as bounds.

The target in experiment [1] is T1, IRAP (Homo sapiens, UniProt Q9UIQ6).
T1 construct: The screen was performed with the soluble truncated IRAP enzyme; made in house
Nature of the experiment: Orthogonal absorbance IRAP assay (L-Leucine para-nitroanilide cleavage). The conditions noted are these: 1 mM L-Leucine p-Nitroanilide, 120 min RT; read-out: Absorbance pIC50 (converted). In kind it is biochemical. The text has this: The primary biochemical assay was developed to measure the enzymatic activity of IRAP. […] To establish an orthogonal assay, an alternative L-Leucine para-nitroanilide substrate was used, which IRAP turns over to L-Leucine and para-nitroaniline and is measurable by absorbance at 405 nm (Supplementary Figure S2B).
To ensure biochemically sound, optimal, robust, and affordable assay conditions for large-scale screening, several factors need to be considered. These include the final concentration of substrates, based on the determined substrate Km value; the assay kinetics and reaction linearity; achieving a minimal, rate limiting protein concentration; identifying optimal buffer additives and concentrations; the choice of assay plate type; the final assay volume per well; the stability of reagents; the magnitude and variance of the signal; and the potency and rank order of reference compounds. For both primary fluorescence and orthogonal absorbance assays, non-binding 1536-well assay plates were used, and 0.05% BSA was included in the assay buffer to minimize the issues associated with protein sticking to plastics. The substrate Km values were determined in two separate experiments using two different batches of IRAP protein. For this, the IRAP progress curve was monitored every 5 min for 2 h using an Envision multimode plate reader (PerkinElmer, Waltham, MA, USA). […] To evaluate if using substrate concentrations close to the determined Km values results in sufficient dynamic range within the linear range of the enzymatic reaction, Z′ and S/B were calculated for multiple time points up to 2.5 h in the presence and absence of reference compounds in both assays. The primary fluorescence assay reached an optimal Z′-value after 1 h when using 37.5 μM substrate (Supplementary Figure S5). For the absorbance, 2 h was required for the enzyme reaction time; however, using ~0.4 mM substrate was associated with increased assay variation and a poor Z′ (Supplementary Figure S6).
The orthogonal assay was performed in a black non-binding 1536-well plate (Corning 3728) and sealed with universal lids (Corning 3098). First, 20 nL of test compounds (4 mM) or 100% DMSO was dispensed into the 1536-well assay plates using an Echo acoustic liquid handler (Beckman Coulter). Then, 4 μL of protein working solution (5 × 10^−4 mg/mL) was dispensed to the negative control (min effect) and compound wells (final well concentration 2.5 × 10^−4 mg/mL) using the Certus Flex liquid dispenser (Fritz Gyger AG) and 4 μL assay buffer to the positive control wells (max effect) using the FLEXdrop (PerkinElmer). Next, 4 μL of 2 mM substrate working solution was dispensed into all wells using the FLEXdrop (final well concentration 1 mM). The assay plates were then centrifuged at 187.5× g for 30 s, incubated in the dark at RT for 120 min, and finally read on an Envision plate reader (PerkinElmer) (absorbance at 405 nm, 10 flashes per second). During the dose–response curve analysis in the orthogonal assay, 80 nL of compound (range 2.00 × 10^−3 M–2.74 × 10^−6 M) or 100% DMSO was dispensed into the assay plates using an Echo acoustic liquid handler (Beckman Coulter) with final well concentration range of 20 μM–27.4 nM compound and 1% DMSO.

Experiment [2] addresses T1, IRAP. Nature of the experiment: Thermal shift (TSA) IRAP assay. In kind it is binding. To be noted: screening hits at 30 µM, 1% DMSO. From the text: The Thermal shift assay (TSA) is a biophysical technique measuring protein thermal stability. The assay relies on a fluorescent dye that is quenched in an aqueous environment but fluoresces when de-solvated in non-polar environments, such as the hydrophobic pockets of proteins. The target protein is mixed with the dye and heated gradually until it becomes completely denatured; as it unfolds or melts, the dye binds to newly exposed hydrophobic regions of the protein, resulting in a significant increase in fluorescence emission detected by a PCR system. The melting temperature (Tm) is calculated from the protein melt curve, and changes in Tm (known as ΔTm) are correlated with changes in protein stability and ligand binding. […] For the TSA assay, vehicle (DMSO) or compound was dispensed into MicroAmp Endura optical qPCR plates at the desired volume using an Echo acoustic liquid handler. […] The plates were then centrifuged for 10 s at 1000 rpm and sealed with Clear PCR-compatible plate seals.

On the set-up of experiment [3]: method as in ELF screening history. To be noted: ref ELF screening history, cited from earlier work; for Enzyme Active: number of ELF enzyme screens in which the compound was active; for Targets active: number of ELF screens in which the compound was active; for Enzyme Active %: share of ELF enzyme targets screened; for Targets Active %: share of all ELF targets screened.

In experiment [4] the target is T1, IRAP. The experiment is described as follows: Deselection fluorescence IRAP assay with 10 µM zinc. The conditions noted are these: 10 µM ZnSO4 in assay buffer; read-out: Fluorescence + Zn pIC50 (converted). It is filed as biochemical. As to the method: To prepare the assay buffer (50 mM Tris-HCl pH 7.4, 150 mM NaCl, 0.1 mM PMSF, 0.05% BSA) of the primary and orthogonal assays, 1 M Tris-HCl was prepared by dissolving 60.57 g Trizma-base (Mw 121.14 g/mol) (Sigma 93362-250G) in 500 mL MQ water, and the pH was adjusted to 7.4 using 4 M HCl. The solution was filtered with a 0.45 μm filter and stored at room temperature (RT). Then, 2 M NaCl stock was prepared by dissolving 29.22 g NaCl (Mw 58.44 g/mol) (Sigma S7653-250G) in 250 mL MQ water. The solution was filtered with a 0.45 μm filter and stored at RT. Next, 100 mM Phenylmethanesulfonylfluoride (PMSF) stock was prepared by dissolving 1 g PMSF (Mw 174.19 g/mol) (Sigma 78830-1G) in 57.4 mL isopropanol (Sigma I9516-500ML) and stored at 4 °C. A 10% Bovine Serum Albumin (BSA) stock solution was prepared by dissolving 2 g BSA (Mw 66.5 kDa) (Sigma A7030-50G), which was dissolved in 20 mL MQ water. The solution was filtered with a 0.45 μm filter, aliquoted, and stored at −20 °C. For the deselection assay buffer (50 mM Tris-HCl pH 7.4, 150 mM NaCl, 0.1 mM PMSF, 0.05% BSA, 10 μM ZnSO4), 1 mM ZnSO4 solution was prepared by dissolving 28.8 mg ZnSO4 (Mw 287.56 g/mol) (Sigma Z0251-100G) in 100 mL MQ water. The solution was filtered with a 0.45 μm filter and stored at RT. For the TSA assay buffer (50 mM Tris HCL, 150 mM NaCl, pH 7.4), stocks of 1 M Tris HCL and 2 M NaCl were prepared as described above.

The target of experiment [5] is T1, IRAP. The experiment is described as follows: Primary fluorescence IRAP assay (L-Leucine-7-amido-4-methylcoumarin cleavage). It is filed as biochemical. The conditions noted are these: for IC50: 37.5 µM L-Leucine-7-amido-4-methylcoumarin, 60 min RT, dose-response 20 µM-27.4 nM, read-out: Fluorescence IC50; for LipE: calculated from (pIC50Fluorescence − LogD). From the text:
The primary biochemical assay was developed to measure the enzymatic activity of IRAP.
To ensure biochemically sound, optimal, robust, and affordable assay conditions for large-scale screening, several factors need to be considered. […] For both primary fluorescence and orthogonal absorbance assays, non-binding 1536-well assay plates were used, and 0.05% BSA was included in the assay buffer to minimize the issues associated with protein sticking to plastics. The substrate Km values were determined in two separate experiments using two different batches of IRAP protein. For this, the IRAP progress curve was monitored every 5 min for 2 h using an Envision multimode plate reader (PerkinElmer, Waltham, MA, USA).
First, 10 nL of test compounds (4 mM) or 100% DMSO was dispensed into the 1536-well assay plates using an Echo acoustic liquid handler (Beckman Coulter, Brea, CA, USA). Then, 2 μL of protein working solution (5 × 10^−4 mg/mL) was dispensed to the negative control (min effect) and compound wells (final well concentration 2.5 × 10^−4 mg/mL) using a Certus Flex liquid dispenser (Fritz Gyger AG, Thun, Switzerland) and 2 μL assay buffer to the positive control wells (max effect) using a FLEXdrop (PerkinElmer, Waltham, MA, USA).
Figure S9. Reference compounds in Fluorescence IRAP assay with different end volumes in 1536-well format.
mg/ml) and 2 or 4 µL L -Leucine-7-amido-4-methylcoumarin (f.a.c.
Plates were measured on the Envision every 10 minutes for 140 minutes (data
shown up to 2 hours). %Effect was calculated using no protein as MAX effect (assay buffer was added instead of IRAP).

T1 sequence (Q9UIQ6 155-1025 limits assumed): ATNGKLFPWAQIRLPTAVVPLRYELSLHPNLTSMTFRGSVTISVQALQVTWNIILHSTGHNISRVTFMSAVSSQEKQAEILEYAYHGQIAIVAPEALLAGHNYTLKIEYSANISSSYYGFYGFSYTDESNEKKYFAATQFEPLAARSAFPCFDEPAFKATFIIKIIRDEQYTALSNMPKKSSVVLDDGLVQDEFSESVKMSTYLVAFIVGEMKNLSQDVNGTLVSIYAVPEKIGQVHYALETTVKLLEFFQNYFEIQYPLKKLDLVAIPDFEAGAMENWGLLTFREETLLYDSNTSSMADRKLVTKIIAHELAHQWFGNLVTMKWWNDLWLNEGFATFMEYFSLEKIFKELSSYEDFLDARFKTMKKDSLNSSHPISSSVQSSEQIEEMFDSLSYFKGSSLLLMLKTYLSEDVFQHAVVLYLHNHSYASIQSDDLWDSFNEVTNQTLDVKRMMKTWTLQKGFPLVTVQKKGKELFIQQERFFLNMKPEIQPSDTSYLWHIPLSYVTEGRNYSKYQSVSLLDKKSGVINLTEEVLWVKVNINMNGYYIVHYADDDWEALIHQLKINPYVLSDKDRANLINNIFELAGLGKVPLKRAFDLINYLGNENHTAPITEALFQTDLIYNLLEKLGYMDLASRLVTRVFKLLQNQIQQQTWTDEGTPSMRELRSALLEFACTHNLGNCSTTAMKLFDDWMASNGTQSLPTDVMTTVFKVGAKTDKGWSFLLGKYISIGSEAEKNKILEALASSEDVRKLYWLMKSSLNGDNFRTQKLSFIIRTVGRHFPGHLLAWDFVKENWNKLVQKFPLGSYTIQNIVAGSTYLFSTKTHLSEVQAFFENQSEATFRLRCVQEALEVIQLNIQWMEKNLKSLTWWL

For the compound `COc1ccc(S(=O)(=O)CCC(CCCc2ccccc2)C(=O)NO)cc1` (stereo not drawn) [QHL4], the IC50 on IRAP [1] was 2000 nM. Moreover, the ΔTm at 30 µM at IRAP [2] was 4 °C. For the same compound, in experiment [3], the “Enzyme Active” value is listed as 3, the Targets active is listed as 5, the “Enzyme Active %” value is reported as 3.2% and the “Targets Active %” value was 3.4%. At IRAP [4], the IC50 is 676 nM. At IRAP [5], the IC50 was 710 nM and the LipE is 2.51.

For the compound `O=C(NO)C1(CS(=O)(=O)N2CCC(c3ccc(F)cc3Cl)C2)CCC1` (stereo not drawn) [QHL5], on IRAP [1], the IC50 is 1950 nM. In addition, on IRAP [2], the ΔTm at 30 µM was 4.29 °C. In experiment [3], the “Enzyme Active” value is listed as 3, the Targets active is 4, the “Enzyme Active %” value is 3.3% and the “Targets Active %” value is reported as 2.7%. In addition, on IRAP [4], the IC50 is 1120 nM. Further, at IRAP [5], the IC50 was 1200 nM and the LipE is 3.79.

On to `CC(C)C(CS(=O)(=O)N1CCC(c2ccc(F)cc2Cl)C1)C(=O)NO` (stereo not drawn) [QHL6], for which the IC50 on IRAP [1] is 5750 nM. The thermal shift (ΔTm) at 30 µM at IRAP [2] amounted to 3.55 °C. In experiment [3], the “Enzyme Active” value was 3, the Targets active is 5, the “Enzyme Active %” value is 3.2% and the “Targets Active %” value is reported as 3.4%. Further, on IRAP [4], the IC50 is 1230 nM. On IRAP [5], the IC50 was found to be 1260 nM and the LipE is given as 3.57.

For the compound `Fc1ccc(F)c(Cn2ccc3ncc(N4CCNCC4)cc32)c1Cl` [QHL7], the IC50 on IRAP [1] is greater than 20000 nM. The ΔTm at 30 µM at IRAP [2] turned out to be 0.3 °C. Moreover, in experiment [3], the “Enzyme Active” value is on record as 8, the Targets active is on record as 9, the “Enzyme Active %” value was 8.6% and the “Targets Active %” value is listed as 6.0%. Further, the IC50 on IRAP [4] is 1380 nM. At IRAP [5], the IC50 was determined as 1290 nM and the LipE is listed as 2.10.

In the case of `O=C(NO)C(CS(=O)(=O)N1CCC(c2ccc(F)cc2Cl)CC1)C1CCOCC1` (stereo not drawn) [QHL8], the IC50 at IRAP [1] is 3550 nM. The shift in melting temperature (ΔTm) at 30 µM on IRAP [2] came to 4.61 °C. In experiment [3], the “Enzyme Active” value is 4, the Targets active was 6, the “Enzyme Active %” value was 4.3% and the “Targets Active %” value was 4.0%. The IC50 at IRAP [4] was 1290 nM. On IRAP [5], the IC50 was determined as 1320 nM and the LipE was 3.94.

Turning to `COc1cc(C(=O)N2CCc3n[nH]c(-c4cccs4)c3CC2)on1` [QHL9], the IC50 on IRAP [1] is greater than 20000 nM. The ΔTm at 30 µM on IRAP [2] was found to be 0.15 °C. Also, in experiment [3], the “Enzyme Active” value is reported as 2, the Targets active is listed as 4, the “Enzyme Active %” value is on record as 4.9% and the “Targets Active %” value is on record as 5.3%. Also, the IC50 at IRAP [4] was 1580 nM. Further, at IRAP [5], the IC50 was 1510 nM and the LipE is 2.98.

Consider `NCC[C@H]1CCCCN1C(=O)Cn1nc(-c2ccc(Cl)cc2)c2c1CCCC2` [QHL11], for which the IC50 at IRAP [1] was 3890 nM. For the same compound, at IRAP [2], the ΔTm at 30 µM stood at 1.92 °C. In experiment [3], the “Enzyme Active” value is recorded as 4, the Targets active is 5, the “Enzyme Active %” value is given as 4.2% and the “Targets Active %” value was 3.4%. Moreover, the IC50 at IRAP [4] was 1700 nM. In addition, on IRAP [5], the IC50 was determined as 1660 nM and the LipE is given as 2.57.

Consider `Cc1cccc(Cl)c1CNc1ncnc2ncn(C)c12` [QHL12], for which the IC50 on IRAP [1] was 13800 nM. Further, on IRAP [2], the thermal shift (ΔTm) at 30 µM is -0.15 °C. Further, in experiment [3], the “Enzyme Active” value was 3, the Targets active was 3, the “Enzyme Active %” value was 3.6% and the “Targets Active %” value is 2.1%. For the same compound, at IRAP [4], the IC50 is 1950 nM. Moreover, on IRAP [5], the IC50 is 1910 nM and the LipE is 1.68.

On to `COc1ccc([C@@H]2c3nnnn3CCN2CCCN(C)c2ccccc2)c(C)c1` [QHL13], for which the IC50 at IRAP [1] was 16200 nM. At IRAP [2], the ΔTm at 30 µM was -1.91 °C. In experiment [3], the “Enzyme Active” value was 12, the Targets active is on record as 19, the “Enzyme Active %” value is 14.1% and the “Targets Active %” value was 13.2%. Also, the IC50 at IRAP [4] was 2000 nM. Also, on IRAP [5], the IC50 was 2140 nM and the LipE is on record as 2.39.
